Reference: publication PMC12394552, “Multi-biological activity evaluation of Sn(П), Zn(П) and Fe(П) complexes based on thiocarbohydrazide schiff bases: synthesis, spectroscopic investigations and fluorescence studies” (Scientific Reports, 2025)
In brackets after ≈: the same amount, converted by molar mass. Like-named read-outs stand apart in the source and are kept apart here.

Columns and labels:
[1] = DPPH free radical scavenger assay; conditions: values given in µM; 1 h incubation, 517 nm; test range 6.25–200 µM; mean ± SD n = 4
Source text: This method depends on the reduction of the radicals, resulting in a color change from oxidized purple to reduced yellow. Principally, Diphenyl-2-picryl-hydrazyl (DPPH) undergoes reduction in methanol (MeOH) solution, in the presence of a hydrogen-donating compound, due to the formation of the non-radical form DPPH-H. This color change can be quantitatively measured using a 515–520 nm spectrophotometer. In contrast to other radical scavenging assays, a DPPH radical is stable and can provide reproducible spectroscopic values[41],[42]. A DPPH solution (0.2 mM) was diluted with MeOH and then mixed with treatment compounds as well as ascorbic acid in a concentration ratio of 1:1 using a 96-well plate (so that a final concentration range 6.25–200 µM was obtained for test agents); the treated solution was incubated one hour isolated from light. Finally, a change in absorbance at 517 nm wavelength was measured using a microplate reader (Bio-Tek Instrument, USA). Ascorbic acid was the robust and classical standard radical scavenging reference agent for comparison purposes[43],[44]. The calculation of the DPPH radical scavenging activity inhibition was determined by the following equation, where A represents photometric absorbance: in % = (A control – A sample) / A control x 100%)[45].

[2] = system: Staphylococcus aureus ATCC 6538; experiment: MIC determination, broth microdilution (EUCAST adapted); type: cell-based; conditions: ATCC6538, read-out: S. aureus MIC value
Method: (§1) The compounds were tested against Gram-positive bacteria (Staphylococcus aureus ATCC 6538), Gram-negative bacteria (Escherichia coli ATCC 8739) and yeast (Candida albicansATCC10231). […] For bacterial strains, the EUCAST (2025) method was adapted. A few colonies of each bacterial culture previously grown on Mueller-Hinton agar for 24–48 h were suspended in normal saline and adjusted to 0.5 McFarland (1.5 × 10^8 CFU/mL). A 1/10 dilution was prepared in Mueller-Hinton broth (MHB) for the inoculation. In the wells of a 96-well flat-bottom microtiter plate, double serial dilutions of each compound were prepared in MHB. Each well was inoculated with the bacteria to achieve ca. 5 × 10^5 CFU/mL, and the plates were incubated at 37 °C overnight. Positive control (bacteria in culture medium only) and negative control (culture medium) were prepared. Each compound was tested in duplicate. After incubation, the plates were inspected visually for growth inhibition. To test the antimicrobial activity of DMSO, double serial dilutions of DMSO in broth medium were prepared and processed as the samples, but without the addition of the compounds. The antibacterial drug ciprofloxacin was used as a reference for comparison.
(§2) For Candida albicans, the same procedure applied to bacteria was used, except after inoculation, the plates were incubated at 35 °C for 24 h, and after incubation, the absorbance was measured at 530 nm using a plate reader. […] The absorbance of the wells was corrected by subtracting the absorbance of the blank. […] The antifungal drug fluconazole was used as a reference for comparison.

[3] = system: Escherichia coli ATCC 8739; experiment: as above; type: cell-based; conditions: ATCC8739, read-out: E. coli MIC value
Method: as §1, §2

A375 skin melanoma = experiment: SRB antiproliferative assay; type: cell-based; conditions: Homo sapiens, A-375, 72 h; read-out: Cytotoxicity (as of %Control) IC50 value, A375 skin melanoma
Method: (§3) All malignancy cell lines were cultured in high glucose DMEM (Bio Whittaker, Verviers, Belgium) containing 10% FBS, 4-(2-hydroxyethyl)-1-piperazineethanesulfonic acid (HEPES) Buffer (10 mM), L-glutamine (2 mM), gentamicin (50 µg/mL), penicillin (100 U/mL), and streptomycin sulfate ([…]) from Sigma (St. Luis, MO, USA) whereas Sulforhodamine B was from Santa Cruz Biotechnology (Inc. Texas, USA). Surviving cancer cell lines provide numerous advantages; they provide a pure and continuous supply of cells, thus overcoming any ethical barriers concerning human tissue usage, and are cost-effective. For cytotoxicity screening, adherent monolayers of all procured malignancies’ cell lines were examined. Periodontal ligament fibroblasts (PDL) were used to determine selective cytotoxicity.

[4] = system: CACO2 colorectal cancer cell line; experiment: SRB antiproliferative assay; type: cell-based
Method: as §3

[5] = system: HCT116 colorectal cancer cell line; experiment: SRB antiproliferative assay; type: cell-based
Method: as §3

[6] = system: HT29 colorectal cancer cell line; experiment: SRB antiproliferative assay; type: cell-based
Method: as §3

[7] = system: SW620 colorectal cancer cell line; experiment: SRB antiproliferative assay; type: cell-based
Method: as §3

U87 glioblastoma = experiment: SRB antiproliferative assay; type: cell-based; conditions: Homo sapiens, 72 h, read-out: Cytotoxicity (as of %Control) IC50 value, U87 Gliobalstoma
Method: as §3

[8] = system: Candida albicans ATCC10231; experiment: MIC determination, broth microdilution, absorbance 530 nm; type: cell-based; conditions: ATCC10231, 24 h, read-out: C. albicans MIC value at 50% inhibition
Method: as §1, §2

[9] = system: MDA-MB-453 invasive mammary malignancy; experiment: SRB antiproliferative assay; type: cell-based, human
Method: as §3

[10] = system: MDA-MB-231 invasive mammary malignancy; experiment: SRB antiproliferative assay; type: cell-based, human; conditions: Homo sapiens, MDA-MB-231, 72 h, read-out: Cytotoxicity (as of %control) IC50 value, MDA-MB-231 invasive mammary malignancy
Method: as §3

[11] = system: SW480 colorectal cancer cell line; experiment: SRB antiproliferative assay; type: cell-based, human; conditions: Homo sapiens, SW480, 72 h; read-out: Cytotoxicity (as of %control) IC50 value, SW480
Method: as §3

MCF7 mammary malignancy = experiment: SRB antiproliferative assay; type: cell-based, human
Method: as §3

A549 lung malignancy = experiment: SRB antiproliferative assay; type: cell-based, human; conditions: Homo sapiens, A549, 72 h; read-out: Cytotoxicity (as of %Control) IC50 value, A549 lung malignancy
Method: as §3

Hela cervix malignancy = experiment: SRB antiproliferative assay; type: cell-based, human
Method: as §3

[12] = system: PANC1 pancreatic cell line; experiment: SRB antiproliferative assay; type: cell-based, human
Method: as §3

PC3 prostate malignancy = experiment: SRB antiproliferative assay; type: cell-based, human
Method: as §3

T47D mammary malignancy = experiment: SRB antiproliferative assay; type: cell-based, human; conditions: Homo sapiens, T47D, 72 h; read-out: Cytotoxicity (as of %control) IC50 value, T47D mammary malignancy
Method: as §3

[13] = system: BT-549 invasive mammary malignancy; experiment: SRB antiproliferative assay; type: cell-based, human; conditions: Homo sapiens, BT-549, 72 h; read-out: Cytotoxicity (as of %control) IC50 value, BT-549 invasive mammary malignancy
Method: as §3

RAW 264.7 macrophages = experiment: SRB cytotoxicity on RAW 264.7 viability; type: cell-based; conditions: Mus musculus, RAW264.7, read-out: RAW 264.7 viability IC50 value
Method: as §3
RAW 264.7 mouse macrophage cell line (ATCC® TIB-71) were cultured in high glucose DMEM supplemented with 10% (FBS), penicillin (100 U/mL), streptomycin (100 µg/mL), and L-glutamate (100 µg/mL) in a 37 °C humidified atmosphere with 95% air and 5% CO2. Confluent macrophages (2 × 10^5/well) were incubated with inflammation-priming lipopolysaccharide (LPS; Sigma, St. Luis, MO, USA) with either indomethacin as the reference agent[39] or treatment compounds at different concentrations (1.563-200 µM). Griess reagent was mixed with aliquots of cell culture media and incubated at R.T. for 10 min. Absorbance at 550 nm was determined using a microplate reader (Spectro Scan 80D UV-VIS spectrophotometer (Sedico Ltd., Nicosia, Cyprus). The nitrite concentration was determined by comparison with a sodium nitrite standard curve. SRB cytotoxicity protocol was performed for evaluation of the effect of the studied test compounds on RAW 264.7 viability.

[14] = system: Periodontal ligament fibroblasts (PDL); experiment: SRB selective cytotoxicity in normal fibroblasts; type: cell-based; conditions: Fibroblast
Method: as §3

Compound	MIC [2] [µg/mL]	MIC [3] [µg/mL]	IC50 (A375 skin melanoma) [µM]	IC50 (U87 glioblastoma) [µM]	MIC [8] [µg/mL]	IC50 [10] [µM]	IC50 [11] [µM]	IC50 (A549 lung malignancy) [µM]	IC50 (T47D mammary malignancy) [µM]	IC50 [13] [µM]	IC50 (RAW 264.7 macrophages) [µM]	IC50 [14] [µM]	also measured
COc1ccc(/C=N/NC(=S)N/N=C/c2ccc(OC)cc2)cc1 [L2, 1,5-bis (4-methoxyanisaldehyde) thiocarbohydrazine]	15.6 (≈ 45.6 µM)	31.3 (≈ 91.4 µM)	> 200	> 200	31.3 (≈ 91.4 µM)	> 200	51.6 ± 3.07	36.6 ± 0.2	> 200	94.8 ± 4.17	> 200	> 200	IC50 [1]: 18.1 ± 2.04 µM; IC50 ([4]; Homo sapiens, Caco-2, 72 h, read-out: Cytotoxicity (as of %control) IC50 value, CACO2): > 200 µM; IC50 ([5]; Homo sapiens, HCT-116, 72 h, read-out: Cytotoxicity (as of %control) IC50 value, HCT116): > 200 µM; IC50 ([6]; Homo sapiens, HT-29, 72 h, read-out: Cytotoxicity (as of %control) IC50 value, HT29): > 200 µM; IC50 ([7]; Homo sapiens, SW-620, 72 h; read-out: Cytotoxicity (as of %control) IC50 value, SW620): 117 ± 3.81 µM; IC50 ([9]; Homo sapiens, MDA-MB-453, 72 h, read-out: Cytotoxicity (as of %control) IC50 value, MDA-MB-453 invasive mammary malignancy): > 200 µM; IC50 (MCF7 mammary malignancy; Homo sapiens, MCF7, 72 h, read-out: Cytotoxicity (as of %control) IC50 value, MCF7 mammary malignancy): > 200 µM; IC50 (Hela cervix malignancy; Homo sapiens, HeLa, 72 h, read-out: Cytotoxicity (as of %Control) IC50 value, Hela cervix malignancy): > 200 µM; IC50 ([12]; Homo sapiens, PANC-1, 72 h, read-out: Cytotoxicity (as of %control) IC50 value, PANC1): > 200 µM; IC50 (PC3 prostate malignancy; Homo sapiens, 72 h, read-out: Cytotoxicity (as of %Control) IC50 value, PC3 prostate malignancy): > 200 µM
COc1ccccc1/C=N/NC(=S)N/N=C/c1ccccc1OC [L1, 1,5-bis(2-methoxyanisaldehyde) thiocarbohydrazine]	15.6 (≈ 45.6 µM)	31.3 (≈ 91.4 µM)	41.7 ± 0.7	29.5 ± 0.2	31.3 (≈ 91.4 µM)	29.2 ± 3.8	5.35 ± 0.25	44.8 ± 1.8	21.8 ± 1.2	46.4 ± 1.11	> 200	> 200	IC50 ([4]; Homo sapiens, Caco-2, 72 h; read-out: Cytotoxicity (as of %control) IC50 value, CACO2): 23.2 ± 0.6 µM; IC50 ([5]; Homo sapiens, HCT-116, 72 h; read-out: Cytotoxicity (as of %control) IC50 value, HCT116): 36.1 ± 1.9 µM; IC50 ([6]; Homo sapiens, HT-29, 72 h; read-out: Cytotoxicity (as of %control) IC50 value, HT29): 42.1 ± 5.7 µM; IC50 ([7]; Homo sapiens, SW-620, 72 h, read-out: Cytotoxicity (as of %control) IC50 value, SW620): < 3.12 µM; IC50 ([9]; Homo sapiens, MDA-MB-453, 72 h; read-out: Cytotoxicity (as of %control) IC50 value, MDA-MB-453 invasive mammary malignancy): 72.9 ± 3.4 µM; IC50 (MCF7 mammary malignancy; Homo sapiens, MCF7, 72 h; read-out: Cytotoxicity (as of %control) IC50 value, MCF7 mammary malignancy): 52.4 ± 5.25 µM; IC50 (Hela cervix malignancy; Homo sapiens, HeLa, 72 h; read-out: Cytotoxicity (as of %Control) IC50 value, Hela cervix malignancy): 44.8 ± 3.8 µM; IC50 ([12]; Homo sapiens, PANC-1, 72 h; read-out: Cytotoxicity (as of %control) IC50 value, PANC1): 66.8 ± 0.2 µM; IC50 (PC3 prostate malignancy; Homo sapiens, 72 h; read-out: Cytotoxicity (as of %Control) IC50 value, PC3 prostate malignancy): 145 ± 1.5 µM
O=C(O)c1cn(C2CC2)c2cc(N3CCNCC3)c(F)cc2c1=O [Ciprofloxacin, reference compound]	0.097 (≈ 0.293 µM)	0.0008 (≈ 0.00241 µM)											
